For eight compounds, MIC results are on record in ChEMBL document CHEMBL1146381, “Synthesis, stereochemistry and antimicrobial evaluation of t(3)-benzyl-r(2),c(6)-diarylpiperidin-4-one and its derivatives” (2007).

Molecules are shown by their SMILES. Converted amounts (≈) assume the structure as drawn.

Holding throughout (format): functional
The test system of experiment [1] is Escherichia coli. Description: Antibacterial activity against Escherichia coli.
Experiment [2] has as its system Klebsiella pneumoniae. Description: Antibacterial activity against Klebsiella pneumoniae.
The test system of experiment [3] is Enterococcus faecalis. Description: Antibacterial activity against Streptococcus faecalis.
Experiment [4] deals with Bacillus subtilis. As to the kind of experiment: Antibacterial activity against Bacillus subtilis.
In experiment [5] the test system is Candida. Description: Antifungal activity against Candida 6.
The subject of experiment [6] is Candida. As to the kind of experiment: Antifungal activity against Candida 51.
Experiment [7] concerns Aspergillus niger. As to the kind of experiment: Antifungal activity against Aspergillus niger.
Experiment [8] deals with Aspergillus flavus. As to the kind of experiment: Antifungal activity against Aspergillus flavus.
In experiment [9] the test system is Pseudomonas aeruginosa. Description: Antibacterial activity against Pseudomonas aeruginosa.
The subject of experiment [10] is Cryptococcus neoformans. As to the kind of experiment: Antifungal activity against Cryptococcus neoformans.

Regarding `O=C1CC(c2ccccc2)NC(c2ccccc2)C1Cc1ccccc1` (stereo not drawn), the MIC in experiment [1] was 12.5 µg/mL (≈ 36.6 µM); in [2], 100 µg/mL (≈ 293 µM); in [3], 50 µg/mL (≈ 146 µM); in experiment [4], 12.5 µg/mL (≈ 36.6 µM); in [5], 50 µg/mL (≈ 146 µM); in experiment [6], 50 µg/mL (≈ 146 µM). The MIC was 100 µg/mL (≈ 293 µM) in experiment [7] and 50 µg/mL (≈ 146 µM) in [8].
Consider `CN[C@@H]1[C@H](O[C@H]2[C@H](O[C@H]3[C@H](O)[C@@H](O)[C@H](N=C(N)N)[C@@H](O)[C@@H]3N=C(N)N)O[C@@H](C)[C@]2(O)C=O)O[C@@H](CO)[C@H](O)[C@H]1O` [STREPTOMYCIN], for which the MIC in [9] came to 25 µg/mL (≈ 43 µM); in experiment [1] it was 12.5 µg/mL (≈ 21.5 µM); in experiment [2], 25 µg/mL (≈ 43 µM); in [3], 50 µg/mL (≈ 86 µM); in [4] it was 12.5 µg/mL (≈ 21.5 µM).
On to `O=C1CC(c2ccco2)NC(c2ccco2)C1Cc1ccccc1` (stereo not drawn), for which the MIC amounted to 25 µg/mL (≈ 77.8 µM) in [9]; 12.5 µg/mL (≈ 38.9 µM) in [1]; 12.5 µg/mL (≈ 38.9 µM) in experiment [2]; 12.5 µg/mL (≈ 38.9 µM) in experiment [3]; 50 µg/mL (≈ 156 µM) in experiment [4]; 25 µg/mL (≈ 77.8 µM) in experiment [10]. Further, the MIC in experiment [5] turned out to be 25 µg/mL (≈ 77.8 µM); in experiment [6], 25 µg/mL (≈ 77.8 µM); in experiment [7], 50 µg/mL (≈ 156 µM); in [8], 50 µg/mL (≈ 156 µM).
As for `O=CN1C(c2ccccc2)CC(=O)C(Cc2ccccc2)C1c1ccccc1` (stereo not drawn), the MIC in [9] was determined as 12.5 µg/mL (≈ 33.8 µM); in experiment [1], 25 µg/mL (≈ 67.7 µM); in experiment [2] it was 6.25 µg/mL (≈ 16.9 µM); in [3] it was 25 µg/mL (≈ 67.7 µM); in experiment [4], 25 µg/mL (≈ 67.7 µM); in experiment [10], 12.5 µg/mL (≈ 33.8 µM). The minimal inhibitory concentration (MIC) in experiment [5] was 25 µg/mL (≈ 67.7 µM); in experiment [6], 12.5 µg/mL (≈ 33.8 µM); in experiment [7], 50 µg/mL (≈ 135 µM); in [8] it was 25 µg/mL (≈ 67.7 µM).
On to `O/N=C1\CC(c2ccccc2)NC(c2ccccc2)C1Cc1ccccc1` (stereo not drawn), for which the MIC in [9] turned out to be 25 µg/mL (≈ 70.1 µM); in [1] it was 12.5 µg/mL (≈ 35.1 µM); in experiment [2] it was 12.5 µg/mL (≈ 35.1 µM); in [3] it was 25 µg/mL (≈ 70.1 µM); in [4], 25 µg/mL (≈ 70.1 µM); in [10], 25 µg/mL (≈ 70.1 µM). The MIC is 50 µg/mL (≈ 140 µM) in [5], 12.5 µg/mL (≈ 35.1 µM) in [6], 100 µg/mL (≈ 281 µM) in [7] and 50 µg/mL (≈ 140 µM) in experiment [8].
Regarding `O=CN1C(c2ccccc2)C/C(=N\O)C(Cc2ccccc2)C1c1ccccc1` (stereo not drawn), the MIC was found to be 50 µg/mL (≈ 130 µM) in experiment [9]; 25 µg/mL (≈ 65 µM) in experiment [1]; 6.25 µg/mL (≈ 16.3 µM) in experiment [2]; 25 µg/mL (≈ 65 µM) in experiment [3]; 25 µg/mL (≈ 65 µM) in [4]; 6.25 µg/mL (≈ 16.3 µM) in experiment [10]. Besides, the MIC in experiment [5] is 12.5 µg/mL (≈ 32.5 µM); in experiment [6], 12.5 µg/mL (≈ 32.5 µM); in experiment [7], 25 µg/mL (≈ 65 µM); in [8] it was 12.5 µg/mL (≈ 32.5 µM).
With `O/N=C1\CC(c2ccco2)NC(c2ccco2)C1Cc1ccccc1` (stereo not drawn), the minimum inhibitory concentration (MIC) in experiment [9] came to 12.5 µg/mL (≈ 37.2 µM); in experiment [1], 12.5 µg/mL (≈ 37.2 µM); in experiment [2], 6.25 µg/mL (≈ 18.6 µM); in [3], 12.5 µg/mL (≈ 37.2 µM); in experiment [4], 25 µg/mL (≈ 74.3 µM); in [10], 6.25 µg/mL (≈ 18.6 µM). Besides, the MIC in [5] stood at 25 µg/mL (≈ 74.3 µM); in experiment [6], 12.5 µg/mL (≈ 37.2 µM); in experiment [7], 6.25 µg/mL (≈ 18.6 µM); in experiment [8], 25 µg/mL (≈ 74.3 µM).
As for `C[C@@H]1[C@H](O)[C@@H](C)/C=C/C=C/C=C/C=C/C=C/C=C/C=C/[C@H](O[C@@H]2O[C@H](C)[C@@H](O)[C@H](N)[C@@H]2O)C[C@@H]2O[C@](O)(C[C@@H](O)C[C@@H](O)[C@H](O)CC[C@@H](O)C[C@@H](O)CC(=O)O[C@H]1C)C[C@H](O)[C@H]2C(=O)O` [AMPHOTERICIN B], the MIC was determined as 25 µg/mL (≈ 27.1 µM) in experiment [10]; 25 µg/mL (≈ 27.1 µM) in [5]; 25 µg/mL (≈ 27.1 µM) in [6]; 50 µg/mL (≈ 54.1 µM) in experiment [7]; 50 µg/mL (≈ 54.1 µM) in experiment [8].

What is called MIC is the lowest concentration that inhibits growth of the organism. Low readings indicate greater potency, high ones weaker potency.
